These results are taken from ChEMBL document CHEMBL1201862, “PubChem BioAssay data set” (2004).

Broadly, the IC50 is the concentration that inhibits the measured activity by half. One may read the AC50 as the midpoint of the concentration-response curve, whichever way the signal moves. One may read the EC50 as the concentration needed to bring the measured effect to its halfway point.

The source made the active and inactive calls.

Experiment [1] concerns the target Glucose-6-phosphate 1-dehydrogenase (Homo sapiens, UniProt P11413). Description: human G6PD enzyme inhibitors, dose response, selectivity assay for P. falciparum G6PD inhibitor project, biochemical, fluorescence (AID 504792). The experiment is classed as functional.
Experiment [2] addresses Lysine-specific demethylase 4C (Homo sapiens, UniProt Q9H3R0). Description: GASC-1 (JMJD2C) histone demethylase inhibitors, dose response, biochemical, DELFIA europium, cherry-picked samples (AID 488835). It counts as functional.
The test system of another experiment is Salmon testes DNA. Kind of experiment: DNA intercalators displacing acridine orange, dose response, artefact control for KSHV LANA DNA-binding inhibitor project, biochemical, fluorescence polarization, cherry-picked samples, set 2 (AID 504727). Set-up: species or system Salmonidae.
A further experiment deals with HeLa. Kind of experiment: HeLa cell cytotoxicity, dose response, cytotoxicity control, 24 h, cherry-picked samples (AID 504726).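 Note: potency for cytotoxicity as loss of luminescence signal.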 It counts as functional, cell-based. The conditions noted are these: Homo sapiens.
Experiment [3] has as its target Voltage-gated N-type calcium channel alpha-1B subunit/Amyloid beta A4 precursor protein-binding family A member 1 (Homo sapiens, UniProt Q00975+Q02410). It counts as protein assay.
Experiment [4] addresses T1, 1-phosphatidylinositol 4,5-bisphosphate phosphodiesterase gamma-1 (Homo sapiens, UniProt P19174).
T1 sequence (P19174 whole entry): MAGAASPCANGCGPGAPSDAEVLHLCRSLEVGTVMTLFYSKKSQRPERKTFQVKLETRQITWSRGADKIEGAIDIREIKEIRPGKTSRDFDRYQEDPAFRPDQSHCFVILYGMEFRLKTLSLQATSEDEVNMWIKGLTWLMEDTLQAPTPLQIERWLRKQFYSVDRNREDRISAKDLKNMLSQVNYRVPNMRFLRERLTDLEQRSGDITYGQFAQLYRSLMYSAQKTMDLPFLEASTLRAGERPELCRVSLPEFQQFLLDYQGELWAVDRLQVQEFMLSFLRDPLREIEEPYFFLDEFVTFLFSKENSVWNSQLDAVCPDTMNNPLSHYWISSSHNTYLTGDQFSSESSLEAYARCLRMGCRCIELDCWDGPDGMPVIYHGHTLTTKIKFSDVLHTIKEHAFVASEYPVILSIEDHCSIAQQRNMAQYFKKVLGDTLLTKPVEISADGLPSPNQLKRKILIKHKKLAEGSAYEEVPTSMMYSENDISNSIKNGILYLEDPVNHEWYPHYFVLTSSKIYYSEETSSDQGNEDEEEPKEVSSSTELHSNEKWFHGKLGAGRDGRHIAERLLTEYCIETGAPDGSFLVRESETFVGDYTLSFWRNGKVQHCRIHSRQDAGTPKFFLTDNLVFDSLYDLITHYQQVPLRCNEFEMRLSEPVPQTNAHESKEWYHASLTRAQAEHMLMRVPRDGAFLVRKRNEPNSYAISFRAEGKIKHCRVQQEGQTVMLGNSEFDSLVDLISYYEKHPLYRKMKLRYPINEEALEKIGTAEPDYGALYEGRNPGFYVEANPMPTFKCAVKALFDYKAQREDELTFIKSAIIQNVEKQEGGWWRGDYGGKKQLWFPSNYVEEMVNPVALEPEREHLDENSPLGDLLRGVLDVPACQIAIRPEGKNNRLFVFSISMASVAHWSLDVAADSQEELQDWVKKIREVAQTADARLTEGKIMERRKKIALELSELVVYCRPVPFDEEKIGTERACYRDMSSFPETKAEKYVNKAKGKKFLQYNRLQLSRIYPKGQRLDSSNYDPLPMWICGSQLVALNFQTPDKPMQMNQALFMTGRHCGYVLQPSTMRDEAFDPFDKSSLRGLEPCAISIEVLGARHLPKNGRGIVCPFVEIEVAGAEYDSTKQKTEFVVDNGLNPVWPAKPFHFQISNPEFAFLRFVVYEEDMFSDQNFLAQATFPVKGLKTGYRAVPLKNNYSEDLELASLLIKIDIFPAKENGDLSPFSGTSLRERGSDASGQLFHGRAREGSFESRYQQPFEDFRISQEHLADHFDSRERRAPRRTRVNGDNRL
Kind of experiment: Counterscreen for inhibitors of phospholipase C isozymes (PLC-B3): Fluorescence-based biochemical high throughput dose response assay to identify inhibitors of phospholipase C isozymes (PLC-gamma1). (A counterscreen serves to expose hits that act by an unwanted route or on another target.)

The target of experiment [5] is Glutathione-S-transferase (Schistosoma japonicum, UniProt Q26513). Description: biotin-GST/anti-GST TR-FRET signal inhibitors, dose response, artefact control for Vif-APOBEC3G degradation inhibitor project, biochemical (AID 1117362). It counts as functional.
For experiment [6], the target named is Histone-lysine N-methyltransferase NSD2 (Homo sapiens, UniProt O96028). It counts as biochemical.
Another experiment has as its target Procathepsin L (Homo sapiens, UniProt P07711).
The target in the next experiment is T2, Protein Tat (Human immunodeficiency virus type 1 group M subtype B (isolate HXB2)(HIV-1), UniProt P04608).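 Note: tat binding to TAR RNA read out by fluorescence polarization.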
T2 sequence (P04608 whole entry): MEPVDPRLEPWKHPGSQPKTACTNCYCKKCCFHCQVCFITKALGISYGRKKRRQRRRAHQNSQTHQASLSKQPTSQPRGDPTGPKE
It counts as functional.

A short description of experiment [7]: NIH-3T3 fibroblast cytotoxicity, dose response, cytotoxicity control, cell-based, fluorescence, Alamar Blue, secondary assay (AID 2327).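 Note: NIH-3T3 mouse fibroblasts cultured with fluconazole at 8 µg/mL.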 It counts as functional.
A short description of experiment [8]: A549 cell cytotoxicity, dose response, cytotoxicity control, plate reader, cherry-pick, antagonist series (AID 743412). It counts as functional, cell-based.

Procathepsin L, sequence (P07711 whole entry): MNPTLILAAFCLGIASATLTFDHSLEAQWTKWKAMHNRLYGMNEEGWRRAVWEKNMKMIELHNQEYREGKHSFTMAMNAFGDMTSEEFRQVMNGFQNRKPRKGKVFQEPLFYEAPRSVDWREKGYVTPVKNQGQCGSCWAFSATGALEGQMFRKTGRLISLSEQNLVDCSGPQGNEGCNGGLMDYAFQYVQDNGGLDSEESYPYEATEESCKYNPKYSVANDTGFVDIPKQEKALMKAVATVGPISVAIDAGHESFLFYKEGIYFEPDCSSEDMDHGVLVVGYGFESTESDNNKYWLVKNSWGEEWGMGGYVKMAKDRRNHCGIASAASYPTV
Histone-lysine N-methyltransferase NSD2, sequence (O96028 whole entry): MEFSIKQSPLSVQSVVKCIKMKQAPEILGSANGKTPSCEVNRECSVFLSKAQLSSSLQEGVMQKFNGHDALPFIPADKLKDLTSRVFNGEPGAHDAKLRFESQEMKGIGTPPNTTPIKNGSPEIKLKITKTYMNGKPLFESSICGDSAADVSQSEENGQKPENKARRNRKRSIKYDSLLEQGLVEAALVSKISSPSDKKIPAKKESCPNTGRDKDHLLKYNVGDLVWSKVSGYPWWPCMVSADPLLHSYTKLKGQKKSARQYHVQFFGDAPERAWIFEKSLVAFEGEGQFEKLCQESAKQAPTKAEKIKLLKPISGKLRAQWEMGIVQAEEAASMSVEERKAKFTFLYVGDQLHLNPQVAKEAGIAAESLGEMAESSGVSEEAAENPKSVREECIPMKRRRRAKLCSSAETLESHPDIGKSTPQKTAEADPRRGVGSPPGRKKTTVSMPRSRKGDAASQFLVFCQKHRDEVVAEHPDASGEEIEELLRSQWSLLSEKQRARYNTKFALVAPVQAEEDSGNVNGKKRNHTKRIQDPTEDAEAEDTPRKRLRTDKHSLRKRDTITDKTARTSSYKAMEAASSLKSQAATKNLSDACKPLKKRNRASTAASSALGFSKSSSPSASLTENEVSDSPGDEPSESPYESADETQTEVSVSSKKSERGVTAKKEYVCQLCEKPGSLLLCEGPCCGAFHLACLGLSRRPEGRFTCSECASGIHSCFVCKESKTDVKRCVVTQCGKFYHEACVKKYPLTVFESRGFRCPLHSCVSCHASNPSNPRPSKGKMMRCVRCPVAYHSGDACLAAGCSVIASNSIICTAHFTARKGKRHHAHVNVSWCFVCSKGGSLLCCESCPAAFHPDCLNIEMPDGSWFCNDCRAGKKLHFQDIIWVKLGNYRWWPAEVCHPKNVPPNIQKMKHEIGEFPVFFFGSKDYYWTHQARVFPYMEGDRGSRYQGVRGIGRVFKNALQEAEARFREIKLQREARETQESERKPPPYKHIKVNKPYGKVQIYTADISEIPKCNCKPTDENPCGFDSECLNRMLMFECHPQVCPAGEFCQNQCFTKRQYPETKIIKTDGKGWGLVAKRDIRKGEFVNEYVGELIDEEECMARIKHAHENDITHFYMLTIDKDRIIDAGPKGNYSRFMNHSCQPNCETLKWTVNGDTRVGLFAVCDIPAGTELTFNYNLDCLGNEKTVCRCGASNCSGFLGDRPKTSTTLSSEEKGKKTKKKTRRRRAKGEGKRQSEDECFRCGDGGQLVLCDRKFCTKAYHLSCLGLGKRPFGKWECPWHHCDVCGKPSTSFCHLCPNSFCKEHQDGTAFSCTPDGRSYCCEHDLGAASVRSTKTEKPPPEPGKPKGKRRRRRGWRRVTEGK
Glucose-6-phosphate 1-dehydrogenase, sequence (P11413 whole entry): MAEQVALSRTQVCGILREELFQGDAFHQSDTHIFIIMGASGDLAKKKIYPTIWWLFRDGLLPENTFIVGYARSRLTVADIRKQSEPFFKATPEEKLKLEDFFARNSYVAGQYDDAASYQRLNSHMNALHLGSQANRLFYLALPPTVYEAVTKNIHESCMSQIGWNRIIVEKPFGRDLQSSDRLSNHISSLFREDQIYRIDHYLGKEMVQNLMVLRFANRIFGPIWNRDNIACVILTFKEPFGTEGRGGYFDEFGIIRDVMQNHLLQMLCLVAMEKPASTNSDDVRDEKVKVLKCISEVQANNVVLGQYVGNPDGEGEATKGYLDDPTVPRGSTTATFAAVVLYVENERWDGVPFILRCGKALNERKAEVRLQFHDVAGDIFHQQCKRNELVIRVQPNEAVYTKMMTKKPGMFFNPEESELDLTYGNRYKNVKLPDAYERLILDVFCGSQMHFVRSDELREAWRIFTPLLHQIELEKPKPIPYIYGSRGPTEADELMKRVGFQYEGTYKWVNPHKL
Glutathione-S-transferase, sequence (Q26513 whole entry): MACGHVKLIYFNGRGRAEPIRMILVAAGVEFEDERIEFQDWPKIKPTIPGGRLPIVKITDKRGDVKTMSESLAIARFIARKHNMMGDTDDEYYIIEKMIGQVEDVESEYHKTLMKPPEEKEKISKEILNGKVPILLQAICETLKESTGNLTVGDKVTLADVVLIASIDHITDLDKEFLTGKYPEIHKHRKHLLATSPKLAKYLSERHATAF
Lysine-specific demethylase 4C, sequence (Q9H3R0 whole entry): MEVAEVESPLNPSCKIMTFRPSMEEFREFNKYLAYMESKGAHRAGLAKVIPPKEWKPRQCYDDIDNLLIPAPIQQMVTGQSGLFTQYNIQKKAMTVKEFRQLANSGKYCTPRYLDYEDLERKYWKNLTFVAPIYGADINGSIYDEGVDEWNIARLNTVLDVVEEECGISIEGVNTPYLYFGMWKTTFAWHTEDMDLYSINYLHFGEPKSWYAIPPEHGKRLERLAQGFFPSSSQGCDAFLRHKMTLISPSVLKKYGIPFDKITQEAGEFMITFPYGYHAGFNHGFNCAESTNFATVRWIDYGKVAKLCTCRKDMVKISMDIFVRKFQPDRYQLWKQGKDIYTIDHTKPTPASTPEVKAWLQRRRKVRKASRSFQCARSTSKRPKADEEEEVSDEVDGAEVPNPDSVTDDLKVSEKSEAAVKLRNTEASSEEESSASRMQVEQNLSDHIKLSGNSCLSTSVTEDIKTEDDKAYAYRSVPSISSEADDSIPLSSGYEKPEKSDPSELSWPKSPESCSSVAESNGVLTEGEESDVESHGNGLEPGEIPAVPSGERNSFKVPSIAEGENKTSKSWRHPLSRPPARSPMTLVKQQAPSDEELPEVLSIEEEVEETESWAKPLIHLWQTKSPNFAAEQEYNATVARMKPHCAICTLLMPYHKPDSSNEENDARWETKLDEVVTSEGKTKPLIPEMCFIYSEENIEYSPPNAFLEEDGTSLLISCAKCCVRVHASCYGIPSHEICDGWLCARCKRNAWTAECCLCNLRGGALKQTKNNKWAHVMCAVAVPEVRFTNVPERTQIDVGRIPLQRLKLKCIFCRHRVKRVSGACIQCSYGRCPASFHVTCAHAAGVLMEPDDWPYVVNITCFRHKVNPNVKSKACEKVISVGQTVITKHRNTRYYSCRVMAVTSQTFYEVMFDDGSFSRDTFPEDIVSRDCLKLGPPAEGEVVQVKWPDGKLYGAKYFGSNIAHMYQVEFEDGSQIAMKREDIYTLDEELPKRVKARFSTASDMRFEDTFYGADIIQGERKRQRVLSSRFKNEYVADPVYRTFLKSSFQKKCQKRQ

As for `Cc1cc(C)c(S(=O)(=O)Nc2cc(SCC(=O)O)c(O)c3ccccc23)cc1C`, in [1], the IC50 is 8.73 µM (active). Besides, the AC50 in experiment [2] was 13 µM (active).
As to `O=C(O)c1cc(N2N=C(C(F)(F)F)/C(=C/C=C/c3ccco3)C2=O)ccc1Cl`, the half-maximal activity concentration (AC50) in the experiment with Salmon testes DNA was 126 µM (active); in the experiment with HeLa, 24.9 µM (active). The IC50 in [3] is 24.6 µM (active).
With `O=C(/C=C/c1ccco1)NC(=S)Nc1cccc(C(=O)O)c1`, the IC50 in [4] is > 122 µM (inactive).
Consider `CNCc1ccccc1Sc1ccc(O)c(O)c1`, for which the figures for the IC50 (in experiment [5]; against Procathepsin L; on Protein Tat) were 16 µM (active), > 59.6 µM (not active) and > 100 µM (active), respectively. Also, the AC50 is > 20 µM (inactive) in experiment [6] and > 52 µM (inactive) in experiment [8]. Also, the EC50 in [7] is > 150 µM (inactive).
